Read-outs that look alike come from different tables or passages of the source.
Legend:
[1] = biological target: T1, Bce, oxalate decarboxylase from Bacillus cereus, SEQ ID NO: 1 (Bacillus cereus, UniProt Q81GZ6); conditions: 2 mM chemical, 6 days at 40° C., pH 9.5, tested at pH 3, against Bce 40° C. control
Description: (§4) For determining the pH activity profile of enzymes activity was determined from pH 1.5 to 8.0 using a combination of citrate and phosphate buffers (50 mM). Test sample is added to pre-heated reaction buffer and incubated at 37° C., shaking at 1100 rpm, for a range of set time points (t). The reaction is quenched at time t±5 seconds using 2.5 N H2SO4 at a 10% rate of acid to reaction mixture. The quenched reaction mixture is filtered and analyzed for formate concentration using an isocratic ion exclusion HPLC method.
Injection volume is 40 μl, and mobile phase is 5 mM H2SO4 (Isocratic) with flow rate at 0.6 mL/min and column temperature at 40° C. Standards of oxalic acid and formic acid are analyzed during every batch to prepare the standard curves. The running time between each injection is 20 min, and oxalic acid and formic acid are eluted at around 8 min and 16 min, respectively, detected at wavelength 210 nm.
Several different chemicals at final concentrations of 2 mM were added into the purified OxDC enzymes solution of Bce or Cb6301_D29, obtained as Example 3. After mixing well, these mixtures, in 50 mM Arginine at pH 9.5, were incubated at 40° C. without shaking (still) for 6 days. The enzymes themselves, without added chemicals, were incubated at 40° C. and 4° C. as controls. […]

[2] = biological target: T1, Bce, oxalate decarboxylase from Bacillus cereus, SEQ ID NO: 1; experiment: Enzyme kinetics, oxalate degradation by Bce OxDC; conditions: pH 3.0 and below
Description: as §4
(§5) The quenched reaction mixture is filtered and analyzed on an Agilent 1100 series HPLC system equipped with Rezex™ ROA-Organic Acid H+ (8%), LC Column (300×7.8 mm) from Phenomenex. Injection volume is 40 μl, and mobile phase is 5 mM H2SO4 (Isocratic) with flow rate at 0.6 mL/min and column temperature at 40° C. Standards of oxalic acid and formic acid are analyzed during every batch to prepare the standard curves. The running time between each injection is 20 min, and oxalic acid and formic acid are eluted at around 8 min and 16 min, respectively, detected at wavelength 210 nm.
(§6) The A8 enzyme was measured at four independent pH's of: 5.0, 4.0, 3.5 and 3.0. […] The reaction was terminated by adding 2.5N H2SO4, and analyzed for formate content by HPLC, as described in Example 1. […] The initial reaction rates during the first 5 minutes were determined for substrate concentrations between 0.024-12.5 mM, using same procedure described in Example 1.

[3] = test system: oxalate decarboxylases A8, Cb6301, Cb6312, Cb6803 and Bce; experiment: Affinity for oxalate of A8, Cb6301, Cb6312, Cb6803 and Bce (range); format: biochemical
Description: (§1) The enzyme kinetics of OxDC from four different species, Bce, Bcl, Cb6301_D29, and A8 were measured and compared to known kinetic data of YvrK. […] The reaction was terminated by adding 2.5N H2SO4, and analyzed for formate content by HPLC, as described in Example 1. The reaction without oxalate was included as negative control. The initial reaction rates during the first 5 minutes were determined for substrate concentrations between 0.024-12.5 mM, using same procedure described in Example 1.

[4] = test system: oxalate decarboxylase (OxDC) enzymes of Table 5; experiment: Catalytic efficiency of the OxDC enzymes (range); format: biochemical; conditions: see Table 5
Description: as §1

[5] = biological target: T2, Cb6301, oxalate decarboxylase from Synechococcus elongates 6301, SEQ ID NO: 2 (Synechococcus elongatus, UniProt A0A0H3K3X3); experiment: Enzyme kinetics, oxalate, Cb6301 OxDC; format: biochemical; conditions: Cb6301, pH 3.0 and below
T2 construct: native trimer; the kinetic measurement was probably on the D29 form
T2 sequence (A0A0H3K3X3 1-389): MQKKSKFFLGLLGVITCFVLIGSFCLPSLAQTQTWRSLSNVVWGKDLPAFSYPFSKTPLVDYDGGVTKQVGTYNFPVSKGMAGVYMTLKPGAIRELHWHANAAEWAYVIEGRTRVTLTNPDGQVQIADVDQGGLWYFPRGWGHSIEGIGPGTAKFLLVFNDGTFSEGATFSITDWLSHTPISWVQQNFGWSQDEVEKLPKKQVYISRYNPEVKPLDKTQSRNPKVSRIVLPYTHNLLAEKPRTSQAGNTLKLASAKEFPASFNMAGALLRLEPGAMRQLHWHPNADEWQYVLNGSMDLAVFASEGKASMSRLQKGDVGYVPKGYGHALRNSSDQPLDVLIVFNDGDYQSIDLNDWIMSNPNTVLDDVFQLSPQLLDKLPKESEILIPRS
Description: as §1

[6] = test system: YvrK, oxalate decarboxylase from Bacillus subtilis, SEQ ID NO: 47; conditions: cited from earlier work
[7] = biological target: T3, A8/A0, oxalate decarboxylase from Agrocybe aegerita, SEQ ID NO: 42 (Cyclocybe aegerita, UniProt A0A8S0X585); experiment: Enzyme kinetics, oxalate degradation by A8/A0 OxDC; format: biochemical
T3 construct: A0 from fungal cells (homogenate), A8 from culture supernatant of A. aegerita; A8 also recombinant in E. coli (pColdIV, pOTIpr or pET)
T3 sequence (A0A8S0X585 with tags, fused parts or gaps): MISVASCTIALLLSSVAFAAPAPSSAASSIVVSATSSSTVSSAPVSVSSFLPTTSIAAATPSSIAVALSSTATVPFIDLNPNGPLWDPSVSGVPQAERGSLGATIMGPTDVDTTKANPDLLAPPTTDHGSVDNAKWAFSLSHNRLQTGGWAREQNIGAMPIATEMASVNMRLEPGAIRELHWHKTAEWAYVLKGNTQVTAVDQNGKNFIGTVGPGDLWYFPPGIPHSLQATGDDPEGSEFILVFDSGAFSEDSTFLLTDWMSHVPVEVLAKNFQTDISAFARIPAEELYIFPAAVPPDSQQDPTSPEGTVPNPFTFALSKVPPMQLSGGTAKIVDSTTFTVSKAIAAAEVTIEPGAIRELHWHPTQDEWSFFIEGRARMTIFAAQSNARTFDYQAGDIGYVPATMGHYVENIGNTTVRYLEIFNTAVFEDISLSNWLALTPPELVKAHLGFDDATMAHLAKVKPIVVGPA
Description: as §1, with “YvrK. […] The A8 enzyme was measured at four independent pH's of: 5.0, 4.0, 3.5 and 3.0.” for “YvrK.”
(§2) To determine the kinetic parameters, kcat and Km, the reaction rates v0 at different substrate concentration [S] were fit to Michaelis-Menten equation in KaleidaGraph software: v0=kcat*[E]t*[S]/(Km+[S])
(§3) Unprotonated glutamic acids in an undisrupted active site are more likely to be kept unprotonated than the equivalent residues in a disrupted active site (such as the active site of a disrupted hexamer).

[8] = test system: O=C(O)C(=O)O; experiment: purified protein, by the assay type; conditions: other: Bce, pH 3.0, 37° C.
Description: as §4, §5, §6

[9] = substrate: O=C(O)C(=O)O; experiment: purified protein, by the assay type; format: biochemical, Agrocybe aegerita
Description: as §1, with “YvrK. […] The A8 enzyme was measured at four independent pH's of: 5.0, 4.0, 3.5 and 3.0.” for “YvrK.”
as §2, §3

[10] = substrate: O=C(O)C(=O)O; experiment: purified protein, by the assay type; format: biochemical, Synechococcus elongates 6301; conditions: other: Cb6301_D29, oxalate, pH 3.0, 37° C.
Description: as §1, with “YvrK. […] The A8 enzyme was measured at four independent pH's of: 5.0, 4.0, 3.5 and 3.0.” for “YvrK.”
as §2

[11] = substrate: O=C(O)C(=O)O; experiment: purified protein, by the assay type; format: biochemical, Bacillus clausii; conditions: other: Bcl, oxalate, pH 3.0, 37° C.
Description: as §4, §5, §6

[12] = other: A8, pH 3.0, 37° C., pH 3.0, 37.0 °C

T1 sequence (Q81GZ6 entry or part of it): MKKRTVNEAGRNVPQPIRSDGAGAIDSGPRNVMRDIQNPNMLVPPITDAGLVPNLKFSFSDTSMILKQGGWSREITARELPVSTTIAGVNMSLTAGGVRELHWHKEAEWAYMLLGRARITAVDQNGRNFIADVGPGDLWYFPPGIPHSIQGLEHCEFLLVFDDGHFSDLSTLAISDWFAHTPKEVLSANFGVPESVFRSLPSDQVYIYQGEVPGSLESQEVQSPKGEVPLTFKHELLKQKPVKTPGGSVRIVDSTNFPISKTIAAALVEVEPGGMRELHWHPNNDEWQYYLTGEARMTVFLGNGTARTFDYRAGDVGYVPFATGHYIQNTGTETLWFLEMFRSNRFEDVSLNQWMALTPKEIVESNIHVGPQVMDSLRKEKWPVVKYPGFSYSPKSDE

Question: Which enzyme activity [1] does the source give for `O=C(O)CN(CCN(CC(=O)O)CC(=O)O)CC(=O)O` [EDTA] here?
Answer: The enzyme activity was “decreases significantly”.

Question: Which results are given for `O=C(O)C(=O)O` [oxalate]?
Answer: Km [2]: < 1000 µM; Km [3]: 80 to 500 µM; catalytic efficiency [4]: 871-77000 conversions/M/s; Km [5]: < 1000 µM; Km ([6]; YvrK, oxalate, pH 4.2, 22° C.): 8400 µM; Km ([6]; YvrK, pH 4.0): 8400 µM; kcat ([6]; YvrK, pH 4.2, 22° C.): 53 s⁻¹; kcat/KM ([6]; YvrK, pH 4.2, 22° C.): 6310 M⁻¹ s⁻¹; Km ([6]; Yvrk, pH not given): 8400 µM; Km ([7]; A8/A0, pH 3.0 and below): < 1000 µM; Km as a function of pH ([7]; A8, pH 5.0, 4.0, 3.5 and 3.0): decreases as the pH becomes more acidic

Question: Which results are given for “Bce, oxalate decarboxylase from Bacillus cereus, SEQ ID NO: 1 (Bacillus cereus ATCC 14579)”?
Answer: kcat [8]: 11.2 s⁻¹; kcat/Km [8]: 35000 M⁻¹ s⁻¹

B1: A8/A0, oxalate decarboxylase from Agrocybe aegerita, SEQ ID NO: 42 (Cyclocybe aegerita) (protein)
chain: T3 sequence (A0A8S0X585 with tags, fused parts or gaps)
notes: A0 from fungal cells (homogenate), A8 from culture supernatant of A. aegerita; A8 also recombinant in E. coli (pColdIV, pOTIpr or pET)
Question: Which Km ([9]; other: A0, pH not given) does the source give for B1 here?
Answer: Its Km is 80 µM.

Question: What about the kcat [9, 12] of the same molecule?
Answer: Its kcat is 42 s⁻¹.

Question: And the kcat/Km [9, 12]?
Answer: Its kcat/Km is 525000 M⁻¹ s⁻¹.

B2: Cb6301_D29, oxalate decarboxylase from Synechococcus elongates 6301 where the first 29 amino acids at the n-terminus has been removed, SEQ ID NO: 3 … (protein)
chain: MQTQTWRSLSNVVWGKDLPAFSYPFSKTPLVDYDGGVTKQVGTYNFPVSKGMAGVYMTLKPGAIRELHWHANAAEWAYVIEGRTRVTLTNPDGQVQIADVDQGGLWYFPRGWGHSIEGIGPGTAKFLLVFNDGTFSEGATFSITDWLSHTPISWVQQNFGWSQDEVEKLPKKQVYISRYNPEVKPLDKTQSRNPKVSRIVLPYTHNLLAEKPRTSQAGNTLKLASAKEFPASFNMAGALLRLEPGAMRQLHWHPNADEWQYVLNGSMDLAVFASEGKASMSRLQKGDVGYVPKGYGHALRNSSDQPLDVLIVFNDGDYQSIDLNDWIMSNPNTVLDDVFQLSPQLLDKLPKESEILIPRS
notes: start Met followed by residues 31-389), recombinant in E. coli
Question: For B2, which Km [10] is on record?
Answer: Its Km is 200 µM.

Question: What about the kcat [10] of the same molecule?
Answer: The kcat was 15.4 s⁻¹.

Question: What about the kcat/Km [10] of the same molecule?
Answer: Its kcat/Km is 77000 M⁻¹ s⁻¹.

B3: Bcl, oxalate decarboxylase from Bacillus clausii, SEQ ID NO: 41 (Shouchella clausii KSM-K16) (protein)
chain: MKRGDNVKPLKGNPNIPQPIRADGAGGVDRGPRNLMRDLQNPNILVPPETDRGLIPNLRFSFSDAHMQLNHGGWSREITQRDLPIATTLAGVNMSLTPGGVRELHWHKQAEWSYMLLGHARITAVDQNGRNFIADVGPGDLWYFPPGIPHSIQGLDDGCEFLLVFDDGMFSDLSTLSLSDWMAHTPKDVLSANFGVPESVFATIPTEQVYIYQDEVPGPLQSQQINSPYGAVPQTFKHELLKQPPLVTPGGSVRIVDSRNFPVSKTIAAALVEVEPGAMREMHWHPNNDEWQYYLTGQARMTVFTGNGVARTFDYRAGDVGYVPFATGHYIQNTGNESVWFLEMFKSDRFEDVSLNQWLALTPTELVQHNIHVDSKFTNKLRKEKWPVVKYPTI
Question: For B3, which Km [11] is on record?
Answer: The Km was 1200 µM.

Question: What about the kcat [11] of the same molecule?
Answer: Its kcat is 1.05 s⁻¹.

Question: And the kcat/Km [11]?
Answer: The kcat/Km was 871 M⁻¹ s⁻¹.

— US11603524B2 (priority 2015, dated 2023)
